Like-named read-outs stand apart in the source and are kept apart here.
Tests used:
[1] = biological target: T1, hGSK3B (Homo sapiens, UniProt P49841); test: KINOMEscan; assay type: binding
T1 construct: purchased DiscoverX

[2] = biological target: T2, hABL1(H396P) (Homo sapiens, UniProt P00519, H396P); test: KINOMEscan; assay type: binding
T2 construct: purchased DiscoverX (KINOMEscan platform)

[3] = biological target: T3, hABL1 (Homo sapiens, UniProt P00519); test: KINOMEscan; assay type: binding
T3 construct: purchased DiscoverX (KINOMEscan platform)

[4] = biological target: T4, hMLCK (Homo sapiens, UniProt Q32MK0); test: KINOMEscan; assay type: binding
T4 construct: purchased DiscoverX

[5] = biological target: T5, hFLT4 (Homo sapiens, UniProt P35916); test: KINOMEscan; assay type: binding
T5 construct: purchased DiscoverX
T5 sequence (P35916 25-1363): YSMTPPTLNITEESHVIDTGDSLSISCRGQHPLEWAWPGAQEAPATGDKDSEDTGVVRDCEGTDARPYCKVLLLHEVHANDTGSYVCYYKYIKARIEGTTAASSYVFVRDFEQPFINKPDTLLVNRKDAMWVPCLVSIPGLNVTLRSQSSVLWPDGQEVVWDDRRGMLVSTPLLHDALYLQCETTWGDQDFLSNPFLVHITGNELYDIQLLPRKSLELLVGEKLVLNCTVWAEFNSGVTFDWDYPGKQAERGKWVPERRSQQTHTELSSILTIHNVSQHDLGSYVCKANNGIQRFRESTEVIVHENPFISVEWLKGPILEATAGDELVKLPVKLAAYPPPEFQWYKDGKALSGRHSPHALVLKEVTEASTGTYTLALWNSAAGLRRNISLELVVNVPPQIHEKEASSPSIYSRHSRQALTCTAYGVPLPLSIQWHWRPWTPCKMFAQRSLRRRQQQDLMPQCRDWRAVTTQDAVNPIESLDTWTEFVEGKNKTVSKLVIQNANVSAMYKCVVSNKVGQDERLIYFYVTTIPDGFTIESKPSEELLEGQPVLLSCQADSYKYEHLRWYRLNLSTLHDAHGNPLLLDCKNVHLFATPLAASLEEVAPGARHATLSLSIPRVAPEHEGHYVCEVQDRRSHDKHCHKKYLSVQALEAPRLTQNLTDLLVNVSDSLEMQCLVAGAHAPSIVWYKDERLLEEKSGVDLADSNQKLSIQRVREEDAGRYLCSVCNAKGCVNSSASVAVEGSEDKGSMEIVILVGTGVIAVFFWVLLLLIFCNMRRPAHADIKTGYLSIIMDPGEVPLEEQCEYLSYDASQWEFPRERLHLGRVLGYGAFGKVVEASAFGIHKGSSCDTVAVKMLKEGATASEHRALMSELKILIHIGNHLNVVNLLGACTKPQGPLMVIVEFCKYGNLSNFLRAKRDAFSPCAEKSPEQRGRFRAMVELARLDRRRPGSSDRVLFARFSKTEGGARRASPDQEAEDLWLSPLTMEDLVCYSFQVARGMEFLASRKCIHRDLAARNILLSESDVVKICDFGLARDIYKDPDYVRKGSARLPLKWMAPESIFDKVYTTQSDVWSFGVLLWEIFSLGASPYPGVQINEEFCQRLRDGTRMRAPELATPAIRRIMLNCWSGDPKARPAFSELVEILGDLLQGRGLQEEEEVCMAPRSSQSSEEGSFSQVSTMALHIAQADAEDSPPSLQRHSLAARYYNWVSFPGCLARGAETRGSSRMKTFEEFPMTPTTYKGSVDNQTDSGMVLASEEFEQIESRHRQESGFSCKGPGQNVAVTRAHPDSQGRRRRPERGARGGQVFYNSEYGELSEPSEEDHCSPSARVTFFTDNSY

[6] = biological target: T6, hASK1 (Homo sapiens, UniProt Q99683); test: KINOMEscan; assay type: binding
T6 construct: purchased DiscoverX
T6 sequence (Q99683 whole entry): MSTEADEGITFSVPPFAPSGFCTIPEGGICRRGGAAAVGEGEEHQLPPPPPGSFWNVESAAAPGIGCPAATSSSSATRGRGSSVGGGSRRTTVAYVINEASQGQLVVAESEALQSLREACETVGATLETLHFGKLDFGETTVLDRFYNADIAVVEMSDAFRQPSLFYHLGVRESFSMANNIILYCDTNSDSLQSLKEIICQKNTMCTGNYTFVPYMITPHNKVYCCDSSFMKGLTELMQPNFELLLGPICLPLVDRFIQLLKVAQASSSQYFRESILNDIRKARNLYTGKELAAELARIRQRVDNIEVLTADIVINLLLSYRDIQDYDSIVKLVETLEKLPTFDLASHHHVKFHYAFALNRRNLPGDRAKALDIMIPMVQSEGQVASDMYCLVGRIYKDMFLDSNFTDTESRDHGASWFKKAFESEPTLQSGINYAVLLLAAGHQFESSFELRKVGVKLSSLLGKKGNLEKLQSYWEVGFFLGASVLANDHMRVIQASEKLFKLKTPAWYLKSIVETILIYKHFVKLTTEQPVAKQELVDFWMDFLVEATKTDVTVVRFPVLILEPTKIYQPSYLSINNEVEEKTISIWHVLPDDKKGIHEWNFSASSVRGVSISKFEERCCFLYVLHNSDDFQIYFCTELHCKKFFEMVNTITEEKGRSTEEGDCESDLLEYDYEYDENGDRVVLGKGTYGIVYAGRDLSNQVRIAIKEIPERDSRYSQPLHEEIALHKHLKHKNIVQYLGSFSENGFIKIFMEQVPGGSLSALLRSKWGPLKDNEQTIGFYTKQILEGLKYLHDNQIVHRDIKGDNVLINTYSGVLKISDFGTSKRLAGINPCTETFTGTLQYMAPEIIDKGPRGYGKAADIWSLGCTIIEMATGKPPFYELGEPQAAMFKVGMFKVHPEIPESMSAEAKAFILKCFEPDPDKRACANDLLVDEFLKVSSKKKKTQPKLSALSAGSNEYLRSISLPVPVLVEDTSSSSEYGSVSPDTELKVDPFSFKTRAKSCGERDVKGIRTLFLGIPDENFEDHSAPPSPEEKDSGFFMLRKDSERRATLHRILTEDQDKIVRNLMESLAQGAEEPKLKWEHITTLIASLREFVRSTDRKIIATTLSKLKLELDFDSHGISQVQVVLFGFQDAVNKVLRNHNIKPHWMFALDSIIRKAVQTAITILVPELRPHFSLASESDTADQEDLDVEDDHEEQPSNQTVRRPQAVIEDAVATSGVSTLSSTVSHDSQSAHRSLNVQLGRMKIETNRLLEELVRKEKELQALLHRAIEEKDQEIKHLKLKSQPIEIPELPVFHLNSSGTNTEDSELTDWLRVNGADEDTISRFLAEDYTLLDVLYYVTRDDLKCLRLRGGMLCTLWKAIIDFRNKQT

[7] = biological target: hD1 (Homo sapiens, UniProt P21728); test: cAMP Agonist (Eurofins-CEREP); settings: @ 10 μM
[8] = biological target: T7, hDRAK2 (Homo sapiens, UniProt O94768); test: KINOMEscan; assay type: binding
T7 construct: purchased DiscoverX
T7 sequence (O94768 whole entry): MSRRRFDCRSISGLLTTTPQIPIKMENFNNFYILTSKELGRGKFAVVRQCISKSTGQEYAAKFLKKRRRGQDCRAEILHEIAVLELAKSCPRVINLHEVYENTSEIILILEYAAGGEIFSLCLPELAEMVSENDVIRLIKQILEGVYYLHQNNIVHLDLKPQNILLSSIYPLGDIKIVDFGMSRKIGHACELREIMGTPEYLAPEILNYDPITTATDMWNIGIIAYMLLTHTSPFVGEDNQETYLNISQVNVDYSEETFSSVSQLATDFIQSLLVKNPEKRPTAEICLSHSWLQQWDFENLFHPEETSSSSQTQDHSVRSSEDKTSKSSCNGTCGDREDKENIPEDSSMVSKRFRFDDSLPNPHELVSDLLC

[9] = biological target: T8, hDYRK1A (Homo sapiens, UniProt Q13627); test: KINOMEscan; assay type: binding
T8 construct: purchased DiscoverX

[10] = biological target: T9, hADCK4 (Homo sapiens, UniProt Q96D53); test: KINOMEscan; assay type: binding
T9 construct: purchased DiscoverX

[11] = biological target: T10, hKIT(D816H) (Homo sapiens, UniProt P10721, D816H); test: KINOMEscan; assay type: binding
T10 construct: purchased DiscoverX (KINOMEscan panel)

[12] = biological target: T11, hSTK16 (Homo sapiens, UniProt O75716); test: KINOMEscan; assay type: binding
T11 construct: purchased DiscoverX (KINOMEscan platform)
T11 sequence (O75716 whole entry): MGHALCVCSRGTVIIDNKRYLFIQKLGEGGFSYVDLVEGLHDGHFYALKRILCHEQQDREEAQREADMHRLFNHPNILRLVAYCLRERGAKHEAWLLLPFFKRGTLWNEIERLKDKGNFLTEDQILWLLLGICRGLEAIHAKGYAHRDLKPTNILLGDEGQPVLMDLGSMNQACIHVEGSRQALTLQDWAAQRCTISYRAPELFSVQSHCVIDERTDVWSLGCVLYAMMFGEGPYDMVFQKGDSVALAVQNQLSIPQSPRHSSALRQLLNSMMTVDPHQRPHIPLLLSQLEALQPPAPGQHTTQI

[13] = biological target: T12, hKIT(V559D) (Homo sapiens, UniProt P10721, V559D); test: KINOMEscan; assay type: binding
T12 construct: purchased DiscoverX (KINOMEscan platform)

[14] = biological target: T13, hTLK1 (Homo sapiens, UniProt Q9UKI8); test: KINOMEscan; assay type: binding
T13 construct: purchased DiscoverX

[15] = biological target: T14, hRSK3(Kin.Dom.2-C-term) (Homo sapiens, UniProt Q15349); test: KINOMEscan; assay type: binding
T14 construct: hRSK3(Kin.Dom.2-C-term); purchased DiscoverX (KINOMEscan platform)
T14 sequence (Q15349 415-672 limits assumed): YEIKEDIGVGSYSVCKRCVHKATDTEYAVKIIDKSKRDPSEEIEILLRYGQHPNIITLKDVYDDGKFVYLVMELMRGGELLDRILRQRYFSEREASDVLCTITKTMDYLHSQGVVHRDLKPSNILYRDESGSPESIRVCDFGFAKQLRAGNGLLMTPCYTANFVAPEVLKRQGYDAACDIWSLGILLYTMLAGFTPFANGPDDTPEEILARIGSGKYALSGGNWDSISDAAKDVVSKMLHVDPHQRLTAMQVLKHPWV

[16] = system: ESCC, HCC, and breast cancer cell lines; test: Proliferation assay (CellTiter-Glo); assay type: cell-based; settings: Homo sapiens, range over cell lines of all three panels
Protocol: Cell viability was measured using CellTiter-Glo^TM (Promega) according to the manufacturer's instructions.

[17] = biological target: T15, hHPK1 (Homo sapiens, UniProt Q92918); test: KINOMEscan; assay type: binding
T15 construct: purchased DiscoverX (KINOMEscan panel)

[18] = biological target: T16, hEIF2AK1 (Homo sapiens, UniProt Q9BQI3); test: KINOMEscan; assay type: binding
T16 construct: purchased DiscoverX
T16 sequence (Q9BQI3 whole entry): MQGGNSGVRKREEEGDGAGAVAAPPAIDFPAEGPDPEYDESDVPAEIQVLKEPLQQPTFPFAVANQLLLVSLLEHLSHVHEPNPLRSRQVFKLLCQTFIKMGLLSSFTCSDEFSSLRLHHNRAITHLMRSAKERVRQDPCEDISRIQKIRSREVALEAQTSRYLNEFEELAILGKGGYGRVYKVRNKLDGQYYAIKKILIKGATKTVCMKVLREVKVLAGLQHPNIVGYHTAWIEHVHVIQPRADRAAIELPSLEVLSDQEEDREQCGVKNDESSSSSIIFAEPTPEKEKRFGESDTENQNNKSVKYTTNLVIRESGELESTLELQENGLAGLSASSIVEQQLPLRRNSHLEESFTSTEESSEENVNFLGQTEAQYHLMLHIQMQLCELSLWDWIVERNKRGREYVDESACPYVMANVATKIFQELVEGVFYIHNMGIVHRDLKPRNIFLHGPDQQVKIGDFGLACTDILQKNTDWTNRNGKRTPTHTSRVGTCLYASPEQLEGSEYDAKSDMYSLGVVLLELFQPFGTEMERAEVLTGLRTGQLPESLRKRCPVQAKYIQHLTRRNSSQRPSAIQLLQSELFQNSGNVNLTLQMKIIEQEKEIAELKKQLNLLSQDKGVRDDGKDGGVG

[19] = biological target: T17, hMARK2 (Homo sapiens, UniProt Q7KZI7); test: KINOMEscan; assay type: binding
T17 construct: purchased DiscoverX

[20] = biological target: T18, hTGFBR2 (Homo sapiens, UniProt P37173); test: KINOMEscan; assay type: binding
T18 construct: purchased DiscoverX

[21] = biological target: T19, hFES (Homo sapiens, UniProt P07332); test: KINOMEscan; assay type: binding
T19 construct: purchased DiscoverX

[22] = biological target: T20, hMAPKAPK5 (Homo sapiens, UniProt Q8IW41); test: KINOMEscan; assay type: binding
T20 construct: purchased DiscoverX

[23] = biological target: T21, hAMPK-alpha2 (Homo sapiens, UniProt P54646); test: KINOMEscan; assay type: binding
T21 construct: purchased DiscoverX

[24] = biological target: T22, hLIMK1 (Homo sapiens, UniProt P53667); test: KINOMEscan; assay type: binding
T22 construct: purchased DiscoverX (KINOMEscan platform)

[25] = biological target: T23, hSNARK (Homo sapiens, UniProt Q9H093); test: KINOMEscan; assay type: binding
T23 construct: purchased DiscoverX (KINOMEscan platform)
T23 sequence (Q9H093 whole entry): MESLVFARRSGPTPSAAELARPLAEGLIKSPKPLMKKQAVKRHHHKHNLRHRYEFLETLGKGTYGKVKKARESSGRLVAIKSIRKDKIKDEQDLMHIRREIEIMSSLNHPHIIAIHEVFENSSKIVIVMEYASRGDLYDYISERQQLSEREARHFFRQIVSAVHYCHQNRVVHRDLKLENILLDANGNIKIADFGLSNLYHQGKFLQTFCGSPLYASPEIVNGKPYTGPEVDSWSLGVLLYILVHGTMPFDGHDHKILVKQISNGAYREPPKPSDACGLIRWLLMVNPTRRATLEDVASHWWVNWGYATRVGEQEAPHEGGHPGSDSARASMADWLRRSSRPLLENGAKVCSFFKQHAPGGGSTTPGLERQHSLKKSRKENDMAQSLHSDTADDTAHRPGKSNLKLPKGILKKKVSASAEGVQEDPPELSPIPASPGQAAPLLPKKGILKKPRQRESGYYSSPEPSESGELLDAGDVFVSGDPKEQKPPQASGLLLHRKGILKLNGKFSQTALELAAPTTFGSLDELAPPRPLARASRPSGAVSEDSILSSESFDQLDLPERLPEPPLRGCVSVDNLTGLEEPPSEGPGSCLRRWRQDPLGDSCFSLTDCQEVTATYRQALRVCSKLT

[26] = biological target: T24, hRSK1(Kin.Dom.1-N-term) (Homo sapiens, UniProt Q15418); test: KINOMEscan; assay type: binding
T24 construct: hRSK1(Kin.Dom.1-N-term); purchased DiscoverX (KINOMEscan platform)

[27] = biological target: T25, hM2 (Homo sapiens, UniProt P08172); test: β-arrestin Agonist (Eurofins-CEREP); settings: @ 10 μM
T25 sequence (P08172 1-466): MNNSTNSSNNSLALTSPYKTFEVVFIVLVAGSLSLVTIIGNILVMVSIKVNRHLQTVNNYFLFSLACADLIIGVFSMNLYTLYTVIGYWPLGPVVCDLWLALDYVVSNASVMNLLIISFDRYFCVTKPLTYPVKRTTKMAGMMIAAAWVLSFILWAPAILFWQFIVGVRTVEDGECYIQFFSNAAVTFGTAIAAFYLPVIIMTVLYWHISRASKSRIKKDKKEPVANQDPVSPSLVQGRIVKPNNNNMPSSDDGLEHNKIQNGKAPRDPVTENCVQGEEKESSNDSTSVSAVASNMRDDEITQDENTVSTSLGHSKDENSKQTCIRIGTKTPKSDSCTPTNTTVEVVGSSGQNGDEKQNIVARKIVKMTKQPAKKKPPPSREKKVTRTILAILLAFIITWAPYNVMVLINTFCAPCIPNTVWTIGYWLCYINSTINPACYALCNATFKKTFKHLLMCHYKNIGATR

[28] = biological target: T26, hACVR1 (Homo sapiens, UniProt Q04771); test: KINOMEscan; assay type: binding
T26 construct: purchased DiscoverX (KINOMEscan platform)

[29] = biological target: T27, hGAK (Homo sapiens, UniProt O14976); test: KINOMEscan; assay type: binding
T27 construct: purchased DiscoverX

[30] = biological target: T28, hTRKB (Homo sapiens, UniProt Q16620); test: KINOMEscan; assay type: binding
T28 construct: purchased DiscoverX

[31] = biological target: T29, hERK5 (Homo sapiens, UniProt Q13164); test: KINOMEscan; assay type: binding
T29 construct: purchased DiscoverX

[32] = biological target: T30, hCSNK2A2 (Homo sapiens, UniProt P19784); test: KINOMEscan; assay type: binding
T30 construct: purchased DiscoverX (KINOMEscan platform)

[33] = biological target: T31, hAKT2 (Homo sapiens, UniProt P31751); test: KINOMEscan; assay type: binding
T31 construct: purchased DiscoverX

[34] = biological target: T32, hABL1(F317L) (Homo sapiens, UniProt P00519, F317L); test: KINOMEscan; assay type: binding
T32 construct: purchased DiscoverX (KINOMEscan platform)

Structure (SMILES): Cc1cn(CCN2CCN(c3ccccc3-c3cc(C#N)cc(C(=O)NCCCN4CCCC4)c3)CC2)c2ccccc12 [LLY-507, 3-cyano-5-{2-[4-[2-(3-methylindol-1-yl)ethyl]piperazin-1-yl]-phenyl}-N-[(3-pyrrolidin-1-yl)propyl]benzamide]
- IC50 [1]: > 20 µM
- IC50 [2]: > 20 µM
- IC50 [3]: > 20 µM
- IC50 [4]: > 20 µM
- IC50 [5]: > 20 µM
- IC50 [6]: > 20 µM
- % Effect, Stimulation [7]: -6.8%
- IC50 [8]: > 20 µM
- IC50 [9]: > 20 µM
- IC50 [10]: > 20 µM
- IC50 [11]: > 20 µM
- IC50 [12]: > 20 µM
- IC50 [13]: > 20 µM
- IC50 [14]: > 20 µM
- IC50 [15]: > 20 µM
- IC50 ([16]; 96 h, 3 to 4-day treatment, read-out: IC50, proliferation, standard assay): 1.5 to 6 µM
- IC50 ([16]; 168 h, 7-day treatment, read-out: IC50, proliferation, longer term assay): 0.3 to 3.2 µM
- IC50 [17]: > 20 µM
- IC50 [18]: > 20 µM
- IC50 [19]: > 20 µM
- IC50 [20]: > 20 µM
- IC50 [21]: > 20 µM
- IC50 [22]: > 20 µM
- IC50 [23]: > 20 µM
- IC50 [24]: > 20 µM
- IC50 [25]: > 20 µM
- IC50 [26]: > 20 µM
- % Effect, Stimulation [27]: 5.1%
- IC50 [28]: > 20 µM
- IC50 [29]: > 20 µM
- IC50 [30]: > 20 µM
- IC50 [31]: > 20 µM
- IC50 [32]: > 20 µM
- IC50 [33]: > 20 µM
- IC50 [34]: > 20 µM
